Laboratory results from PubChem BioAssay (NCI).
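Following 48 hours of exposure in 96-well plates, responses at five concentrations were used to interpolate endpoints linearly. Definition used: TGI = concentration required for complete inhibition of growth.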

What was measured:
Test in all cases: NCI anticancer screen, dose series, 48 h
SNB-19 CNS = test system: SNB-19 CNS
SN12C renal = test system: SN12C renal
OVCAR-4 ovarian = test system: OVCAR-4 ovarian
MDA-N = test system: MDA-N
SW-620 colon = test system: SW-620 colon
ACHN renal = test system: ACHN renal
OVCAR-8 ovarian = test system: OVCAR-8 ovarian
LOX IMVI melanoma = test system: LOX IMVI melanoma
T-47D breast = test system: T-47D breast
A549 NSCLC = test system: A549 NSCLC
OVCAR-3 ovarian = test system: OVCAR-3 ovarian
U251 CNS = test system: U251 CNS
COLO 205 colon = test system: COLO 205 colon
NCI-H226 lung = test system: NCI-H226 lung
MDA-MB-231 breast = test system: MDA-MB-231 breast
K-562 leukemia = test system: K-562 leukemia
SK-MEL-2 melanoma = test system: SK-MEL-2 melanoma
SF-295 CNS = test system: SF-295 CNS
HL-60(TB) leukemia = test system: HL-60(TB) leukemia
HCT-116 colon = test system: HCT-116 colon
UACC-257 melanoma = test system: UACC-257 melanoma
MDA-MB-435 = test system: MDA-MB-435
EKVX NSCLC = test system: EKVX NSCLC
MOLT-4 leukemia = test system: MOLT-4 leukemia
RPMI-8226 leukemia = test system: RPMI-8226 leukemia
OVCAR-5 ovarian = test system: OVCAR-5 ovarian
MALME-3M melanoma = test system: MALME-3M melanoma
M14 melanoma = test system: M14 melanoma
MCF7 breast = test system: MCF7 breast
SF-268 CNS = test system: SF-268 CNS
HOP-92 NSCLC = test system: HOP-92 NSCLC
CCRF-CEM leukemia = test system: CCRF-CEM leukemia
NCI-H522 lung = test system: NCI-H522 lung
KM12 colon = test system: KM12 colon
NCI-H23 lung = test system: NCI-H23 lung
DU-145 prostate = test system: DU-145 prostate
NCI/ADR-RES ovarian = test system: NCI/ADR-RES ovarian
SNB-75 CNS = test system: SNB-75 CNS
NCI-H460 lung = test system: NCI-H460 lung
SF-539 CNS = test system: SF-539 CNS
SK-OV-3 ovarian = test system: SK-OV-3 ovarian
CAKI-1 renal = test system: CAKI-1 renal
TK-10 renal = test system: TK-10 renal
UACC-62 melanoma = test system: UACC-62 melanoma
HCC-2998 colon = test system: HCC-2998 colon
SK-MEL-28 melanoma = test system: SK-MEL-28 melanoma
HOP-62 NSCLC = test system: HOP-62 NSCLC
HT29 colon = test system: HT29 colon
IGROV1 ovarian = test system: IGROV1 ovarian
HCT-15 colon = test system: HCT-15 colon
PC-3 prostate = test system: PC-3 prostate
BT-549 breast = test system: BT-549 breast
RXF 393 renal = test system: RXF 393 renal
786-0 renal = test system: 786-0 renal

In the case of `COC(=O)[C@]1(c2cc3ccccc3[nH]2)CC2CN(C(=O)OCc3ccccc3)C1C=C2OC` (some centres undefined), the TGI (SNB-19 CNS) is reported as greater than 100 µM, the TGI (SN12C renal) is reported as greater than 100 µM and the TGI (OVCAR-4 ovarian) is reported as 98.8 µM. For the same molecule, the TGI (MDA-N) was greater than 100 µM, the TGI (SW-620 colon) was greater than 100 µM and the TGI (ACHN renal) was 74.3 µM. It also gave a TGI (OVCAR-8 ovarian) greater than 100 µM, a TGI (LOX IMVI melanoma) greater than 100 µM and a TGI (T-47D breast) greater than 100 µM. The TGI (A549 NSCLC) was greater than 100 µM, the TGI (OVCAR-3 ovarian) was 91.4 µM and the TGI (U251 CNS) was greater than 100 µM. It also gave a TGI (COLO 205 colon) of 38 µM, a TGI (NCI-H226 lung) of 55 µM and a TGI (MDA-MB-231 breast) of 56.9 µM. It also gave a TGI (K-562 leukemia) greater than 100 µM, a TGI (SK-MEL-2 melanoma) of 44 µM and a TGI (SF-295 CNS) greater than 100 µM. The TGI (HL-60(TB) leukemia) was 43.7 µM, the TGI (HCT-116 colon) was greater than 100 µM and the TGI (UACC-257 melanoma) was 49.9 µM. The TGI (MDA-MB-435) was 55.3 µM, the TGI (EKVX NSCLC) was greater than 100 µM and the TGI (MOLT-4 leukemia) was 64.4 µM. It also gave a TGI (RPMI-8226 leukemia) of 72.1 µM, a TGI (OVCAR-5 ovarian) of 44.2 µM and a TGI (MALME-3M melanoma) of 66.4 µM. It also gave a TGI (M14 melanoma) of 47 µM, a TGI (MCF7 breast) of 58.5 µM and a TGI (SF-268 CNS) greater than 100 µM. The TGI (HOP-92 NSCLC) was 80.6 µM, the TGI (CCRF-CEM leukemia) was 69.3 µM and the TGI (NCI-H522 lung) was 91.3 µM. The TGI (KM12 colon) was greater than 100 µM, the TGI (NCI-H23 lung) was greater than 100 µM and the TGI (DU-145 prostate) was greater than 100 µM. The TGI (NCI/ADR-RES ovarian) was greater than 100 µM, the TGI (SNB-75 CNS) was 71.2 µM and the TGI (NCI-H460 lung) was greater than 100 µM. For the same molecule, the TGI (SF-539 CNS) was 55.2 µM, the TGI (SK-OV-3 ovarian) was greater than 100 µM and the TGI (CAKI-1 renal) was greater than 100 µM. It also gave a TGI (TK-10 renal) greater than 100 µM, a TGI (UACC-62 melanoma) of 36.7 µM and a TGI (HCC-2998 colon) of 46.8 µM. The TGI (SK-MEL-28 melanoma) was greater than 100 µM, the TGI (HOP-62 NSCLC) was greater than 100 µM and the TGI (HT29 colon) was 63.6 µM. The TGI (IGROV1 ovarian) was greater than 100 µM, the TGI (HCT-15 colon) was greater than 100 µM and the TGI (PC-3 prostate) was greater than 100 µM. For the same molecule, the TGI (BT-549 breast) was 82.3 µM, the TGI (RXF 393 renal) was 57.6 µM and the TGI (786-0 renal) was greater than 100 µM.
